Test results taken from US10800791B2, “Triazole ACC inhibitors and uses thereof” (Gilead Apollo, LLC, priority 2015, dated 2020).
Values after ≈ are worked out from the molar mass of the structure shown. Read-outs that look alike come from different tables or passages of the source.

What was measured:
human (hACC2) = human (hACC2) (Homo sapiens, UniProt O00763); assay: In vitro ACC inhibition assay (ADP-Glo), hACC2; assay type: biochemical; settings: Table 2b, additional results, 5 nM ACC2, 20 μM ATP, 20 μM acetyl-CoA
Method: The detailed procedure is as follows. […] 10 μL ADP glo reagent was added. […] 20 μL kinase detection reagent was added.

C. albicans = assay: Antifungal Activity Assay (broth microtiter MIC), C. albicans; assay type: cell-based, Candida albicans; settings: Candida albicans, ATCC90028, 48 h
In short: (§1)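 CLSI M27-A3 microdilution; RPMI 1640+MOPS; 2.5×10^3 CFU/mL final inoculum; cultures from Sabouraud dextrose agar, 35° C overnight; compound working solution 128 μg/mL from 1 mg/mL DMSO stock; visual MIC at 48 h vs growth control.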

C. krusei = assay: Antifungal Activity Assay (broth microtiter MIC), C. krusei; assay type: cell-based, Candida krusei; settings: Pichia kudriavzevii, ATCC6258, 48 h
In short: as §1

C. parapsilosis = assay: Antifungal Activity Assay (broth microtiter MIC), C. parapsilosis; assay type: cell-based, Candida parapsilosis; settings: Lodderomyces parapsilosis, ATCC22019, 48 h
In short: as §1

Botrtyis cinerea (Bc) = assay: Growth inhibition assay of fungal pathogens, Bc; assay type: cell-based; settings: 48 h, growth inhibition at 48 hours vs 2% DMSO control
In short: (§2)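 Spore suspension in 17% V8 liquid media; cpd final 50/10/2 or 2/0.4/0.08 ppm, 2% DMSO. OD600 + visual, 24 & 48 h; % inhibition at 48 h vs 2% DMSO ctrl.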

[1] = system: Collectotrichum graminicola (Cg); assay: Growth inhibition assay of fungal pathogens, Cg; assay type: cell-based; settings: 48 h, growth inhibition at 48 hours vs 2% DMSO control
In short: as §2

Diplodia maydis (Dm) = assay: Growth inhibition assay of fungal pathogens, Dm; assay type: cell-based; settings: Stenocarpella maydis, 48 h, growth inhibition at 48 hours vs 2% DMSO control
In short: as §2

[2] = system: Fusarium moniliforme (Fm); assay: Growth inhibition assay of fungal pathogens, Fm; assay type: cell-based; settings: Fusarium verticillioides, 48 h, read-out: Concentration at 90% Inhibition Fm
In short: as §2

[3] = system: Fusarium virguliforme (Fv); assay: Growth inhibition assay of fungal pathogens, Fv; assay type: cell-based; settings: 48 h
In short: as §2

[4] = system: Phytophthora capsici (Pc); assay: Growth inhibition assay of fungal pathogens, Pc; assay type: cell-based; settings: 48 h
In short: as §2

Rhizoctonia solani (Rs) = assay: Growth inhibition assay of fungal pathogens, Rs; assay type: cell-based; settings: 48 h
Septoria tritici (St) = assay: Growth inhibition assay of fungal pathogens, St; assay type: cell-based; settings: Zymoseptoria tritici, 48 h, growth inhibition at 48 hours vs 2% DMSO control
In short: as §2

fungal (fACC2) = fungal (fACC2) (UniProt Q00955); settings: read-out: fACC2 (in vitro ACC2 Inhibition Assay, IC50); Table 2b, additional results; ADP-Glo, 5 nM ACC2, 20 μM ATP, 20 μM acetyl-CoA
[5] = read-out: MIC, C. albicans ATCC 90028, Table 3b (additional results), 3 replicates, MIC recorded at 48 h
[6] = read-out: MIC, C. krusei ATCC 6258, Table 3b (additional results), 3 replicates, MIC recorded at 48 h
[7] = read-out: MIC, C. parapsilosis ATCC 22019, Table 3b (additional results), 3 replicates, MIC recorded at 48 h
[8] = read-out: Concentration at 90% Inhibition Bc, Botrtyis cinerea
[9] = read-out: Concentration at 90% Inhibition Cg, Collectotrichum graminicola
[10] = read-out: Concentration at 90% Inhibition Dm, Diplodia maydis
[11] = read-out: Concentration at 90% Inhibition Fv, Fusarium virguliforme, growth inhibition at 48 hours vs 2% DMSO control
[12] = read-out: Concentration at 90% Inhibition Pc, Phytophthora capsici, growth inhibition at 48 hours vs 2% DMSO control
[13] = read-out: Concentration at 90% Inhibition Rs, Rhizoctonia solani, mycelial plugs, growth inhibition at 48 hours vs 2% DMSO control
[14] = read-out: Concentration at 90% Inhibition St, Septoria tritici
[15] = Table 3b (additional results), ATCC 90028, 3 replicates, MIC recorded at 48 h, read-out: MIC, C. albicans ATCC 90028
[16] = Table 3b (additional results), ATCC 6258, 3 replicates, MIC recorded at 48 h, read-out: MIC, C. krusei ATCC 6258
[17] = Table 3b (additional results), ATCC 22019, 3 replicates, MIC recorded at 48 h, read-out: MIC, C. parapsilosis ATCC 22019
[18] = Botrtyis cinerea, read-out: Concentration at 90% Inhibition Bc
[19] = Collectotrichum graminicola, read-out: Concentration at 90% Inhibition Cg
[20] = Diplodia maydis, read-out: Concentration at 90% Inhibition Dm
[21] = Fusarium moniliforme, growth inhibition at 48 hours vs 2% DMSO control
[22] = growth inhibition at 48 hours vs 2% DMSO control, read-out: Concentration at 90% Inhibition Fv
[23] = growth inhibition at 48 hours vs 2% DMSO control, read-out: Concentration at 90% Inhibition Pc
[24] = mycelial plugs, growth inhibition at 48 hours vs 2% DMSO control, read-out: Concentration at 90% Inhibition Rs
[25] = Septoria tritici, read-out: Concentration at 90% Inhibition St

Sequence of fungal (fACC2) (Q00955 whole entry): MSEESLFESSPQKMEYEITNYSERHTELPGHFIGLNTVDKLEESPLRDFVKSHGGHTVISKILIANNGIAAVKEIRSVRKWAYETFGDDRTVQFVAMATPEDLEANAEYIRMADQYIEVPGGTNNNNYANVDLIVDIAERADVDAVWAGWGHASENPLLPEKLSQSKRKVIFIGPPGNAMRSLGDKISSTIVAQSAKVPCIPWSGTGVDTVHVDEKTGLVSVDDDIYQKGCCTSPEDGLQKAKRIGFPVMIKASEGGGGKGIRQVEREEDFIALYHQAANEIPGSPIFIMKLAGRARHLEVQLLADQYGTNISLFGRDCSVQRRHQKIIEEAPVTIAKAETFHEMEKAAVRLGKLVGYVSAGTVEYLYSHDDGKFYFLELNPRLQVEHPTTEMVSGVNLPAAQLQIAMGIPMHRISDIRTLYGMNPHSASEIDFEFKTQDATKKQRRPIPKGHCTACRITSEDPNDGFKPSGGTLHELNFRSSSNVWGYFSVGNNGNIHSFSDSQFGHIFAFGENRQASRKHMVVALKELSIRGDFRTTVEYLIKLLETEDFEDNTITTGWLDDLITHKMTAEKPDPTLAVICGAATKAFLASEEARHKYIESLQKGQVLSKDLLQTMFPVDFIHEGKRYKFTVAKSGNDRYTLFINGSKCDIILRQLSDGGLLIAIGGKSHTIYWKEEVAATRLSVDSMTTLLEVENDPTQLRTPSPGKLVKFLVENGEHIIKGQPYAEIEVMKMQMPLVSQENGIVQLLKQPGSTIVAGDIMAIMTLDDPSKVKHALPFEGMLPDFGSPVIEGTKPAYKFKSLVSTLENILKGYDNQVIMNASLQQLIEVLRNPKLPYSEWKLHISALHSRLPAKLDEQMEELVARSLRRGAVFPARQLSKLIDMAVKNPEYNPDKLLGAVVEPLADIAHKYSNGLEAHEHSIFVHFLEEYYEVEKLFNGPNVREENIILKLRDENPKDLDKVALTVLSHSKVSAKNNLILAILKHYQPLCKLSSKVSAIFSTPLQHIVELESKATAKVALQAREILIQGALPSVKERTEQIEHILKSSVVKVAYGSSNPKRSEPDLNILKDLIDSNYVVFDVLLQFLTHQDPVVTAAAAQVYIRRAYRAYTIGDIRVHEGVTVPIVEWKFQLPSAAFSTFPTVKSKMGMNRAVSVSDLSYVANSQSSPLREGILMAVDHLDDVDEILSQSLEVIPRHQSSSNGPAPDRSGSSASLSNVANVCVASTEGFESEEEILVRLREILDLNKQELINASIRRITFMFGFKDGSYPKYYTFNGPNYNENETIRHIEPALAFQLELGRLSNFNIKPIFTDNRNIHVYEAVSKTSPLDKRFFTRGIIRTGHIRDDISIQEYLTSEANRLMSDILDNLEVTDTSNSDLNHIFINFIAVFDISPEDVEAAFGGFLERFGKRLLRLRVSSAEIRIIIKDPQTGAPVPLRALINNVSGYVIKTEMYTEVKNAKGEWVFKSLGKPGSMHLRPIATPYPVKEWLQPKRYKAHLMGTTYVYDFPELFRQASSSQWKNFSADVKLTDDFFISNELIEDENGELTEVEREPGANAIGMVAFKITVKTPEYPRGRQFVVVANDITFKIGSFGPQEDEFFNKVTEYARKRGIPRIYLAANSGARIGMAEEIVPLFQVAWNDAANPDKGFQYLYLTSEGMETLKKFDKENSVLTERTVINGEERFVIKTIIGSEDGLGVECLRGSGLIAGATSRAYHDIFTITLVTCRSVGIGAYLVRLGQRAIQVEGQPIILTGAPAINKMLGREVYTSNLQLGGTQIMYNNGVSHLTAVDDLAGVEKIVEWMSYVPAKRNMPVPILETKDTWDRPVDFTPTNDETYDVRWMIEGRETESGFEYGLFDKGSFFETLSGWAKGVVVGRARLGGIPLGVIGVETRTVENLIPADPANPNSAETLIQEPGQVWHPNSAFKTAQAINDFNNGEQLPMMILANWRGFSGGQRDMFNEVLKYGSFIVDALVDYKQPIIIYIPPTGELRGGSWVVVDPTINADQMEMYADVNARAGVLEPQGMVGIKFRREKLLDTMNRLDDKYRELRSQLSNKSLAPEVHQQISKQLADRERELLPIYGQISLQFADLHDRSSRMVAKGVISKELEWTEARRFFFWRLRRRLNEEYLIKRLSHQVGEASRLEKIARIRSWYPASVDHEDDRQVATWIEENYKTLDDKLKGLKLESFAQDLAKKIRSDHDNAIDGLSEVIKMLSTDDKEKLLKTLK
Sequence of human (hACC2) (O00763 whole entry): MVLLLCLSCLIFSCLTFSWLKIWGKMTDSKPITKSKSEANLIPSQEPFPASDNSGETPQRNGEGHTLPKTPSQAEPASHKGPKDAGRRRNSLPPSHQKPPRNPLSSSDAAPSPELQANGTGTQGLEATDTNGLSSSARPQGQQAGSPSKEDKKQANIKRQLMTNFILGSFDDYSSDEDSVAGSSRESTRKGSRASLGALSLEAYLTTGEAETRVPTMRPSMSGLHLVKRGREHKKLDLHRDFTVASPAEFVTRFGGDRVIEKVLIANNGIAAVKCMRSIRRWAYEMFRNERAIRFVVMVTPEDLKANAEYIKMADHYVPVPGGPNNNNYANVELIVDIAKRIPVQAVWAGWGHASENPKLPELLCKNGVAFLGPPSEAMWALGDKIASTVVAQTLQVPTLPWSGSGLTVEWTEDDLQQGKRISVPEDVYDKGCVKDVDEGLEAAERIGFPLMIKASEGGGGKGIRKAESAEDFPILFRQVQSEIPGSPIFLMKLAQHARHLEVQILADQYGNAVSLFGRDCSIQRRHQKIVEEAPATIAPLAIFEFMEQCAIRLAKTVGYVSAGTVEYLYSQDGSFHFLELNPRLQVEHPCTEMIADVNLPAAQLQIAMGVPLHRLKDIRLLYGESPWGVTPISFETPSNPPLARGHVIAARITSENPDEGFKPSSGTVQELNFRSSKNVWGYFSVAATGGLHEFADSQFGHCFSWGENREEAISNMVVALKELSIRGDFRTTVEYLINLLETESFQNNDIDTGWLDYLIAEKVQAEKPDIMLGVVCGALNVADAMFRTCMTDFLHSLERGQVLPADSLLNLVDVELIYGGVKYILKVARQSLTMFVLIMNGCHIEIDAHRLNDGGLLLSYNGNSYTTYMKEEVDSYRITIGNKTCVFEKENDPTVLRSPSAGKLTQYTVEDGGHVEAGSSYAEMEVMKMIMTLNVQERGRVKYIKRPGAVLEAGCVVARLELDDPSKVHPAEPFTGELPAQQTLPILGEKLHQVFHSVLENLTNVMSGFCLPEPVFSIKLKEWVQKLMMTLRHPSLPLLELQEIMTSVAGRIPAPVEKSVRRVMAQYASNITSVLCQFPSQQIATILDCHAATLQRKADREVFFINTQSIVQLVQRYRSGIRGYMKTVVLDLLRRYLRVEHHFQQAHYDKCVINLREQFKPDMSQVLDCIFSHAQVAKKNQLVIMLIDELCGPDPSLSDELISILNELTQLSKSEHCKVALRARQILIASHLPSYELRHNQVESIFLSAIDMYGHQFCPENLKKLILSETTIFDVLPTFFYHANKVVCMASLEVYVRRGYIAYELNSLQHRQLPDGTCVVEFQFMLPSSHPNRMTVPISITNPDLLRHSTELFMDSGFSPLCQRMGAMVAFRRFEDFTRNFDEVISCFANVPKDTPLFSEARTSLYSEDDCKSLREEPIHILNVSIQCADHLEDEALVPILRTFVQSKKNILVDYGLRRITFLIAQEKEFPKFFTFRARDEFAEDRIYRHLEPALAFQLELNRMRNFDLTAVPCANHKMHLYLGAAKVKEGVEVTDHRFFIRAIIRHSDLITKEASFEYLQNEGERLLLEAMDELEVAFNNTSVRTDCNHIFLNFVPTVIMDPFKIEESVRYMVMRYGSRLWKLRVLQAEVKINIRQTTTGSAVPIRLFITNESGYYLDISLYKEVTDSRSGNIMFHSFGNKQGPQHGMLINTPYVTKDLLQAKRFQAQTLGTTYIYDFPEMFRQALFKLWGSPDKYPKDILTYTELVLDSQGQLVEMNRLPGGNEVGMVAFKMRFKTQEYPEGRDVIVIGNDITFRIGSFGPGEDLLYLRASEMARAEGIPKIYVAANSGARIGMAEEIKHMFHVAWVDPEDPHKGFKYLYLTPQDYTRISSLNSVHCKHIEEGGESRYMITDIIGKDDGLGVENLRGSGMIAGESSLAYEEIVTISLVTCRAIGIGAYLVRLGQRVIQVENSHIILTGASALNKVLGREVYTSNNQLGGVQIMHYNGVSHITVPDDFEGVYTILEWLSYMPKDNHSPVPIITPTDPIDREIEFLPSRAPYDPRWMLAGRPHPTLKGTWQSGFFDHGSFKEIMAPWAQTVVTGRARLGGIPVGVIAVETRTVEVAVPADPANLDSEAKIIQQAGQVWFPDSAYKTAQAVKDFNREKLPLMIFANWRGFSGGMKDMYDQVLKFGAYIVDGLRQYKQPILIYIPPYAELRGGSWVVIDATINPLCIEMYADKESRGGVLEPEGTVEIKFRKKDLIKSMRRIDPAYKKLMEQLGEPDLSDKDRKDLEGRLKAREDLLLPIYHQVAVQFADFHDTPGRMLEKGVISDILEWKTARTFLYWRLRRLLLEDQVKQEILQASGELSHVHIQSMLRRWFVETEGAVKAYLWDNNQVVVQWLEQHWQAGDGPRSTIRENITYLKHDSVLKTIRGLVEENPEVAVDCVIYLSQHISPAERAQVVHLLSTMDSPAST

Row | SMILES | IC50 (human (hACC2)) [nM] | MIC (C. albicans; [5]) [µg/mL] | MIC (C. krusei; [6]) [µg/mL] | MIC (C. parapsilosis; [7]) [µg/mL] | IC90 (Botrtyis cinerea (Bc); [8]) [µg/mL] | IC90 [1, 9] [µg/mL] | IC90 (Diplodia maydis (Dm); [10]) [µg/mL] | IC90 [2] [µg/mL] | IC90 [3, 11] [µg/mL] | IC90 [4, 12] [µg/mL] | IC90 (Rhizoctonia solani (Rs); [13]) [µg/mL] | IC90 (Septoria tritici (St); [14]) [µg/mL] | IC50 (fungal (fACC2)) [nM] | MIC (C. albicans; [15]) [µg/mL] | MIC (C. krusei; [16]) [µg/mL] | MIC (C. parapsilosis; [17]) [µg/mL] | IC90 (Botrtyis cinerea (Bc); [18]) [µg/mL] | IC90 [1, 19] [µg/mL] | IC90 (Diplodia maydis (Dm); [20]) [µg/mL] | IC90 [2, 21] [µg/mL] | also measured
1 | Cc1c(-n2nccn2)sc2c1c(=O)n(C(C)(C)C(=O)NC1CCC1)c(=O)n2C[C@H](OC(C)C)c1cc(F)ccc1OCC#N [Compound I-221] | 5 to 10 | 1.01 to 2 (≈ 1.62 to 3.21 µM) | 0.25 to 1 (≈ 0.401 to 1.6 µM) | 0.25 to 1 (≈ 0.401 to 1.6 µM) | 0.4 (≈ 0.641 µM) | 2 (≈ 3.21 µM) | 2 (≈ 3.21 µM) | 0.08 (≈ 0.128 µM) | 0.4 (≈ 0.641 µM) | > 50 | 0.4 (≈ 0.641 µM) | > 50 | 0.3 to 1 |  |  |  |  |  |  |  | 
2 | Cc1c(-n2nccn2)sc2c1c(=O)n(C(C)(C)C(=O)NC(C)C)c(=O)n2C[C@H](O[C@H]1CC[C@@H](O)CC1)c1cc(F)ccc1OCC#N [Compound I-222] | 5 to 10 | 0.25 to 1 (≈ 0.374 to 1.5 µM) | 0.25 to 1 (≈ 0.374 to 1.5 µM) | 0.25 to 1 (≈ 0.374 to 1.5 µM) | 2 (≈ 3 µM) | 2 (≈ 3 µM) | 0.4 (≈ 0.599 µM) | 0.08 (≈ 0.12 µM) | 2 (≈ 3 µM) | > 50 | 0.4 (≈ 0.599 µM) | > 50 | 0.3 to 1 |  |  |  |  |  |  |  | 
3 | COc1ccc(C#N)cc1[C@H](Cn1c(=O)n(C(C)(C)C(=O)NC(C)C)c(=O)c2c(C)c(-n3nccn3)sc21)OCC(C)(C)C#N [Compound I-223] | 10 to 40 |  |  |  |  |  |  |  |  |  |  |  | 1 to 5 | 0.25 to 1 (≈ 0.395 to 1.58 µM) | 0.25 to 1 (≈ 0.395 to 1.58 µM) | 1.01 to 2 (≈ 1.6 to 3.16 µM) | 10 (≈ 15.8 µM) | > 50 | > 50 | 0.4 (≈ 0.632 µM) | IC90 [3, 22]: 10 µg/mL (≈ 15.8 µM); IC90 [4, 23]: > 50 µg/mL; IC90 (Rhizoctonia solani (Rs); [24]): 2 µg/mL (≈ 3.16 µM); IC90 (Septoria tritici (St); [25]): > 50 µg/mL
4 | COc1ccc(Br)cc1[C@H](Cn1c(=O)n(C(C)(C)C(=O)NC(C)C)c(=O)c2c(C)c(-n3nccn3)sc21)OCC(C)(C)C#N [Compound I-224] | 5 to 10 |  |  |  |  |  |  |  |  |  |  |  | 1 to 5 | 0.25 to 1 (≈ 0.364 to 1.46 µM) | 0.25 to 1 (≈ 0.364 to 1.46 µM) | 1.01 to 2 (≈ 1.47 to 2.91 µM) | 0.4 (≈ 0.583 µM) | 2 (≈ 2.91 µM) | 2 (≈ 2.91 µM) | 0.08 (≈ 0.117 µM) | IC90 [3, 22]: 0.4 µg/mL (≈ 0.583 µM); IC90 [4, 23]: > 50 µg/mL; IC90 (Rhizoctonia solani (Rs); [24]): > 50 µg/mL; IC90 (Septoria tritici (St); [25]): > 50 µg/mL
5 | COc1ccc(F)cc1[C@@](O)(CO)Cn1c(=O)n(C(C)(C)C(=O)NC(C)C)c(=O)c2c(C)c(-n3nccn3)sc21 [Compound I-225] | 5 to 10 | 0.25 to 1 (≈ 0.435 to 1.74 µM) | 0.25 to 1 (≈ 0.435 to 1.74 µM) | 1.01 to 2 (≈ 1.76 to 3.48 µM) | 0.4 (≈ 0.696 µM) | 0.08 (≈ 0.139 µM) | 0.4 (≈ 0.696 µM) | 0.08 (≈ 0.139 µM) | 0.4 (≈ 0.696 µM) | 2 (≈ 3.48 µM) | 0.08 (≈ 0.139 µM) | > 50 | 1 to 5 |  |  |  |  |  |  |  | 
6 | Cc1c(-n2nccn2)sc2c1c(=O)n(C(C)(C)C(=O)NC(C)C)c(=O)n2C[C@H](OCCO)c1cc(F)ccc1O [Compound I-226] | 10 to 40 |  |  |  |  |  |  |  |  |  |  |  | 0.3 to 1 | 2.01 to 4 (≈ 3.5 to 6.96 µM) | 1.01 to 2 (≈ 1.76 to 3.48 µM) | 2.01 to 4 (≈ 3.5 to 6.96 µM) | 10 (≈ 17.4 µM) | 10 (≈ 17.4 µM) | > 50 | 2 (≈ 3.48 µM) | IC90 [3, 22]: 10 µg/mL (≈ 17.4 µM); IC90 [4, 23]: > 50 µg/mL; IC90 (Rhizoctonia solani (Rs); [24]): 2 µg/mL (≈ 3.48 µM); IC90 (Septoria tritici (St); [25]): > 50 µg/mL
